Results: PubChem BioAssay (NCI)
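Five compound concentrations were applied to cells in 96-well plates for 48 hours; endpoints were derived by simple linear interpolation of the resulting dose-response curve. Here, GI50 denotes the concentration required for 50% inhibition of growth. Definition used: TGI = concentration required for complete inhibition of growth.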

Legend:
Assay in all cases: NCI-60 cell line screen, 48 h
KM20L2 colon = system: KM20L2 colon
SK-MEL-5 melanoma = system: SK-MEL-5 melanoma
DLD-1 colon = system: DLD-1 colon
RXF 393 renal = system: RXF 393 renal
COLO 205 colon = system: COLO 205 colon
SF-295 CNS = system: SF-295 CNS
M14 melanoma = system: M14 melanoma
SR leukemia = system: SR leukemia
KM12 colon = system: KM12 colon
PC-3 prostate = system: PC-3 prostate

| SMILES | TGI (KM20L2 colon) [µM] | TGI (SK-MEL-5 melanoma) [µM] | TGI (DLD-1 colon) [µM] | TGI (RXF 393 renal) [µM] | TGI (COLO 205 colon) [µM] | TGI (SF-295 CNS) [µM] | TGI (M14 melanoma) [µM] | TGI (SR leukemia) [µM] | TGI (KM12 colon) [µM] | GI50 (PC-3 prostate) [µM] | TGI (PC-3 prostate) [µM] | GI50 (SR leukemia) [µM] | GI50 (KM12 colon) [µM] | GI50 (SK-MEL-5 melanoma) [µM] | GI50 (RXF 393 renal) [µM] | GI50 (COLO 205 colon) [µM] | GI50 (SF-295 CNS) [µM] | GI50 (M14 melanoma) [µM] |
| --- | --- | --- | --- | --- | --- | --- | --- | --- | --- | --- | --- | --- | --- | --- | --- | --- | --- | --- |
| COc1ccc2c(c1O)C(=O)C(CCC(=O)O)CC2 (stereo not given) | > 100 | > 100 | > 100 | > 100 | > 100 | > 100 | > 100 |  |  |  |  |  |  |  |  |  |  |  |
| CC(=O)[O-].CC(=O)[O-].O=C(N/N=C/c1cc(Cl)cc(Cl)c1O)c1ccncc1.[Ni+2] | > 100 | > 100 |  | > 100 | > 100 | 67.2 | > 100 | > 100 | > 100 |  |  |  |  |  |  |  |  |  |
| C=CCCCn1ccc2ccccc21 | > 100 | > 100 | > 100 | > 100 | > 100 | > 100 | > 100 | > 100 | > 100 |  |  |  |  |  |  |  |  |  |
| CCCCCCCCCCCCCCCCOCC(CN(C)CCN(C)C)OCCCCCCCCCCCCCCCC (stereo not given) | > 100 | > 100 | > 100 | > 100 | > 100 | > 100 | > 100 | > 100 | > 100 |  |  |  |  |  |  |  |  |  |
| C[N+](C)(C)CC(=O)N/N=C(\CCC(=O)NCCc1ccccc1)CC(=O)c1ccccc1 | > 100 | > 100 | > 100 |  | > 100 | > 100 | > 100 |  | > 100 |  |  |  |  |  |  |  |  |  |
| C#Cc1c(C)c(/C=C/C(C)=C/C=C/C(C)=C/C(=O)OC)n(C)c1C | > 100 |  | > 100 |  | > 100 | > 100 | > 100 | > 100 | > 100 |  |  |  |  |  |  |  |  |  |
| Cc1nnc(N=Nc2c(O)[nH]c3c(Cl)cc(Cl)cc23)n1N | > 100 |  | > 100 | > 100 | > 100 | > 100 | > 100 | > 100 | > 100 |  |  |  |  |  |  |  |  |  |
| O=C1Nc2cc(Cl)ccc2N=CC1NC(=O)C(c1ccccc1)c1ccccc1Cl (stereo not given) | > 100 | > 100 | > 100 | > 100 | > 100 | > 100 | > 100 |  | > 100 |  |  |  |  |  |  |  |  |  |
| CCCCCCCCCCCCNC(=O)[C@H]1CSC(c2cc3ccccc3s2)N1 (stereo not given in full) |  | 8.72 |  | 2.21 | 12.3 | 8.33 | 1.11 | 1.85 | 3.55 | 1.3 | 4.21 | 0.695 | 1.1 | 4.34 | 0.942 | 6.46 | 3.52 | 0.591 |
| COc1cccc(Cn2c(-c3nonc3N)nc3ccccc32)c1 |  | > 70.5 |  | 0.675 | 10.1 |  | > 100 | > 100 | > 100 | 0.435 | > 84.2 | 0.31 | 0.515 | 0.375 | 0.244 | 0.393 | 0.307 | 0.532 |
| C/C1=C/C(=O)O[C@@H]2C[C@@H](CC[C@H](C)/C=C\C=C\CC1)O[C@@](O)([C@@H]1CSC(=O)N1CO)C2 |  | 13.7 |  | 0.276 | 0.146 | 20.5 | 21.2 | 16 | 24.3 | 0.0367 | 3.13 | 0.154 | 4.96 | 0.222 | 0.0367 | 0.0374 | 0.0414 | 0.227 |
| Cc1nc2ccccn2c1NC(=O)NNC(=S)Nc1ccc(Br)cc1 |  | > 100 |  | > 100 | 84.5 | > 100 | 67.9 | 55.6 | > 100 | 24.5 | > 100 | 18.9 | 35.4 | 47.7 | 52.6 | 29.4 | 57.5 | 24.5 |
| COc1ccc(-c2nsc3c2NC(=O)CC3c2ccc(F)cc2)cc1 (stereo not given) |  | > 100 |  | > 77.5 | 8.39 | > 29.1 | > 100 | > 100 | > 100 | 3.33 | > 100 | 1.1 | 3.13 | 3.22 | 5.91 | 2.49 | 4.08 | 3.74 |
| COCc1c(CO)cnc(C)c1OC1OC(CO)C(O)C(O)C1O (stereo not given) | > 100 | > 100 | > 100 | > 100 |  | > 100 | > 100 | > 100 | > 100 |  |  |  |  |  |  |  |  |  |
